{"source": "paper PMC2906235", "about": "(The Journal of organic chemistry, 2010)", "key": {"[1]": {"tested_on": "Kasumi-1 acute myeloid leukemia cell line", "test": "Kasumi-1 cell growth inhibition assay", "assay_type": "cell-based", "details": "read-out: Kasumi-1 IC50"}, "[2]": {"tested_on": "MOLM-13 acute myeloid leukemia cell line", "test": "MOLM-13 cell growth inhibition assay", "assay_type": "cell-based"}, "[3]": {"target": "recombinant human Hsp90 (Hsp90α) (Homo sapiens, UniProt P07900)", "test": "Competitive binding to recombinant human Hsp90", "details": "relative to control 17-AAG"}, "oncostatin M signaling": {"tested_on": "oncostatin M signaling", "details": "cited from earlier work"}, "[4]": {"tested_on": "human histiocytic lymphoma U-937", "details": "U-937 cells; cited from earlier work"}, "[5]": {"tested_on": "Hsp90 derived from MDA-MB-468 breast cancer cell lysate", "test": "Competitive binding assay to Hsp90 from MDA-MB-468 breast cancer cell lysate"}, "[6]": {"details": "read-out: MOLM-13 IC50, cell growth inhibition, MOLM-13"}}, "note": "Like-named read-outs stand apart in the source and are kept apart here.", "data": [{"smiles": "C=CCNC1=C2C[C@@H](C)C[C@H](OC)[C@H](O)[C@@H](C)/C=C(\\C)[C@H](OC(N)=O)[C@@H](OC)/C=C\\C=C(/C)C(=O)NC(=CC1=O)C2=O", "note": "[17-AAG (4), 17-allylamino-17-demethoxygeldanamycin, reference compound]", "values": [{"measurement": "IC50", "setting": "[1]", "result": 480, "unit": "nM"}, {"measurement": "IC50", "setting": "[2]; [6]", "result": 90, "unit": "nM"}, {"measurement": "IC50", "setting": "[2]; read-out: MOLM-13 IC50, cell growth inhibition, MOLM-13, listed as 17-AAG 4", "result": "~90", "unit": "nM"}]}, {"smiles": "CO[C@H]1C[C@H](C)Cc2cc(O)cc(c2)NC(=O)/C(C)=C/CC[C@H](OC)[C@@H](OC(N)=O)/C(C)=C/[C@H](C)[C@H]1O", "note": "[autolytimycin (2), Autolytimycin]", "values": [{"measurement": "IC50", "setting": "[1]", "result": 280, "unit": "nM"}, {"measurement": "IC50", "setting": "[2]; [6]", "result": "~510", "unit": "nM"}, {"measurement": "IC50", "setting": "[2]; read-out: MOLM-13 IC50, cell growth inhibition, MOLM-13, listed as autolytimcyin (2)", "result": 510, "unit": "nM"}, {"measurement": "Fold higher Hsp90 affinity than 17-AAG", "setting": "[3]", "result": 4, "unit": "fold"}, {"measurement": "Fold higher Hsp90 affinity than 17-AAG", "setting": "[3]; listed as autolytimycin 2", "result": "about 4 fold"}, {"measurement": "Activity in cell based oncostatin M signaling assay", "setting": "oncostatin M signaling", "result": "exhibit activity"}]}, {"smiles": "COc1c(O)cc2cc1C[C@@H](C)C[C@H](OC)[C@H](O)[C@@H](C)/C=C(\\C)[C@H](OC(N)=O)[C@@H](OC)CC/C=C(\\C)C(=O)N2", "note": "[reblastatin (1), reblastatin]", "values": [{"measurement": "IC50, inhibition of proliferation", "setting": "[4]", "result": 0.43, "unit": "µg/mL"}, {"measurement": "IC50", "setting": "[2]; Homo sapiens, MOLM-13, read-out: MOLM-13 IC50, cell growth inhibition, MOLM-13", "result": "~270", "unit": "nM"}, {"measurement": "Fold less active than 17-AAG", "setting": "[2]; MOLM-13 cell line", "result": 3, "unit": "fold"}, {"measurement": "Fold higher Hsp90 affinity than 17-AAG", "setting": "[3]", "result": 4, "unit": "fold"}, {"measurement": "Fold higher Hsp90 affinity than 17-AAG", "setting": "[3]; listed as reblastatin 1", "result": "about 4 fold"}, {"measurement": "Competitive binding (nanomolar activity) to Hsp90", "setting": "[5]; Hsp90 from MDA-MB-468 breast cancer cell lysate", "result": 7.34, "unit": "nM"}, {"measurement": "Fold enhanced activity over geldanamycin", "setting": "[5]; MDA-MB-468 lysate competitive binding", "result": 4, "unit": "fold"}, {"measurement": "IC50", "setting": "oncostatin M signaling; read-out: IC50, oncostatin M signaling assay, cell-based", "result": 160, "unit": "nM"}]}]}
